Reference: patent US20230115176A1 (Ra Pharmaceuticals, Inc., priority 2019, published 2023)

How the values were obtained:
[1] = target: human C5 complement protein (Homo sapiens, UniProt P01031); test: Surface plasmon resonance (SPR), immobilized human C5, 37° C. (Example 12, Table 21); assay type: binding; conditions: where a range of compound concentrations were analyzed, the lowest value obtained
Source text: (§1) Compound CU0136 is a racemic mixture of Compound CU0186 and CU0187. Numbers in parenthesis following compound numbers indicate alternate enantiomers (as distinguished by retention time during chromatographical separation).

Human C5 [2] = target: T1, Human C5 (Homo sapiens, UniProt P01031); test: Red blood cell (RBC) hemolysis assay, luminescent (Example 13, Table 22); assay type: cell-based; conditions: sheep EA cells, […] C5-depleted human serum, 0.5 nM human C5, 1 hour 37° C., luminescence; also: 1.5% C5-depleted human serum
T1 construct: purchased Complement Technology
T1 sequence (P01031 19-1676): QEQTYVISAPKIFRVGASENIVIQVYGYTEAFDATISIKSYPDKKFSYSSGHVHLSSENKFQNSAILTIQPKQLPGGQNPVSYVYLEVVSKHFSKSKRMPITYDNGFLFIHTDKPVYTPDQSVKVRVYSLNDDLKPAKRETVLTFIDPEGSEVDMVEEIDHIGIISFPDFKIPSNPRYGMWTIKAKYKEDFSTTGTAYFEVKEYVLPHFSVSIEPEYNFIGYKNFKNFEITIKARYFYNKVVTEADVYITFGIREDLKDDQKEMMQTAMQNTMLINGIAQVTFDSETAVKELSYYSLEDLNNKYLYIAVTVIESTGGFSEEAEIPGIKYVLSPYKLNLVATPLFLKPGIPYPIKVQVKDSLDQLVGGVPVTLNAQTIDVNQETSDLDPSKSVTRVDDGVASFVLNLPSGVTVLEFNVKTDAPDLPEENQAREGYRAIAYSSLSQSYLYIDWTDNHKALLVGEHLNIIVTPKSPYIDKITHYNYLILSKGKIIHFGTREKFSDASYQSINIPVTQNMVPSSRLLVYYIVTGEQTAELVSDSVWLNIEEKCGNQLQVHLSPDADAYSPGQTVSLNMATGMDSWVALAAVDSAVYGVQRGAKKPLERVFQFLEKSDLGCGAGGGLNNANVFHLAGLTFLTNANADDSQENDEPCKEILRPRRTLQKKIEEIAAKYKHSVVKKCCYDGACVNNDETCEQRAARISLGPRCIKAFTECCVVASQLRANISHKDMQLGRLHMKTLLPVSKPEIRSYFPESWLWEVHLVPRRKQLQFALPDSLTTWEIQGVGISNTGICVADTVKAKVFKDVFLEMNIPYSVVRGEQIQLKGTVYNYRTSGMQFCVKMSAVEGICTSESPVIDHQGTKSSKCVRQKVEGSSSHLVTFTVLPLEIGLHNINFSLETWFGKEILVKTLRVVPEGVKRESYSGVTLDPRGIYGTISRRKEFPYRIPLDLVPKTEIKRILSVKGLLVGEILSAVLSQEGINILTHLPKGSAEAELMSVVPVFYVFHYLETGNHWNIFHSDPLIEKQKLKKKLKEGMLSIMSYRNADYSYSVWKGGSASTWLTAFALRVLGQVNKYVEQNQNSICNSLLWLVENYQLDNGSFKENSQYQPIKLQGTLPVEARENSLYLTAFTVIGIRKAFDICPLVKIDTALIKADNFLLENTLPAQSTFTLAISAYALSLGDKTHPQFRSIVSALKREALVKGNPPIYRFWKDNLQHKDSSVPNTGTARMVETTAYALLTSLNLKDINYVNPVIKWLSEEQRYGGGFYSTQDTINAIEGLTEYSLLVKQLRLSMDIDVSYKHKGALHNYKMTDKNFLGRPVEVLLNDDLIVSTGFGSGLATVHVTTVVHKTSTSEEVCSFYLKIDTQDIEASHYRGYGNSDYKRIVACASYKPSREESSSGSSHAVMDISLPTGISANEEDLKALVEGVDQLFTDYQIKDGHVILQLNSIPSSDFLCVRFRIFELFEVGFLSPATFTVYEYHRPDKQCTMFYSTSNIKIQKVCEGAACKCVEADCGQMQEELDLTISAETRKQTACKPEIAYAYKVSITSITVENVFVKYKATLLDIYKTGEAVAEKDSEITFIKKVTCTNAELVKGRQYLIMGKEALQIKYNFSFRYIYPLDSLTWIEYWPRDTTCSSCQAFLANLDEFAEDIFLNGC
Source text: as §1

purified human C5 = purified human C5 (Homo sapiens, UniProt P01031); test: Red blood cell hemolysis assay, optical, absorbance 412 nm (Example 3, Table 6); assay type: cell-based; conditions: antibody-sensitized sheep erythrocytes, 1.5% human C5 depleted sera, 0.5 nM human C5; average where replicates
Sequence of purified human C5 (P01031 19-1676): as above
Method: Experiments were carried out using a red blood cell (RBC) hemolysis assay to assess compound inhibition of RBC lysis. […] The assay was carried out using 1.5% human C5 depleted sera and 0.5 nM purified human C5.
GVB++ buffer (Complement Technology, Tyler, Tex.) was heated at 37° C. for a minimum of 20 minutes. The human C5 depleted sera and purified human C5 were rapidly thawed at 37° C. and then stored on ice or wet ice, respectively. The compound stock (10 mM, DMSO) was serially diluted in 100% DMSO to obtain ten 6-fold dilutions before addition of GVB++. Sera dilution was prepared by adding 5 mL of GVB++ to a 15 mL conical tube, removing 600 μL of the GVB++ and adding 600 μL of the 100% sera. The tube was mixed by inverting three times. A volume of 25 μL of the diluted sera was added to each well so that the final concentration of sera in the well was 1.5%. C5 dilution was prepared by adding 5 mL of GVB++ to a 15 mL conical tube, removing 4 μL of the GVB++ and adding 4 μL of the C5 stock. The tube was mixed by inverting three times. A volume of 25 μL was added to each well so that the final amount of C5 was 0.5 nM in each well. The antibody-sensitized sheep erythrocytes (EAs) were centrifuged at 1,000× gravity at 22° C. for 3 minutes. The supernatant was pipetted off without disrupting the pellet. The pellet was then resuspended in GVB++ with the same volume removed. Resuspended EAs were mixed by gently inverting the tube.
Five controls were run on each plate: (1) EAs only=100 μL EAs+50 μL GVB++ with 4% DMSO+50 μL GVB++; (2) EA+Sera=100 μL EAs+50 μL GVB++ with 4% DMSO+25 μL Sera dilution+25 μL GVB++; (3) EA+C5=100 μL EAs+50 μL GVB++ with 4% DMSO+25 μL C5 dilution+25 μL GVB++; (4) EA+Sera+C5=100 μL EAs+50 μL GVB++ with 4% DMSO+25 μL Sera dilution+25 μL C5; (5) GVB++ Only=200 μL GVB++. Other wells included: GVB++ with 4% DMSO=20 μL DMSO+480 μL GVB++. All samples were analyzed in duplicate. The compound dose response curve was generated using samples prepared with 100 μL EA+50 μL compound dilution+25 μL C5 dilution+25 μL sera dilution.
Test plates were prepared by adding 100 μL of EAs, 50 μL of compound dilution, 25 μL of sera dilution, and 25 μL of C5 dilution to individual wells of a 96-well tissue culture-treated clear microtitre plate (USA Scientific, Ocala, Fla.) and resuspending by pipetting up and down three times. The samples were incubated at 37° C. for one hour. At the completion of the incubation, the plates were centrifuged at 1,000× gravity for 3 minutes. 100 μl of supernatant were transferred to a new plate and the absorbance was read at 412 nm. Data was fit with a log-logit formula producing a dose-response curve and IC50.
“IC50” refers to the half maximal inhibitory concentration, where the value is the concentration of the inhibitor needed to reduce red blood cell hemolysis by half. Where replicate analysis was conducted, average IC50 values are provided along with standard deviation (SD) values.

Human C5 [3] = target: T1, Human C5; test: Surface plasmon resonance (SPR), compounds on immobilized human C5 (Example 2, Table 5); assay type: binding; conditions: lowest value where a range of compound concentrations were analyzed
Method: Surface plasmon resonance (SPR) technology was used to evaluate affinity, specificity, and kinetics of interactions between compounds and complement protein C5 in real time without the need for labeling.
SensiQ FE SPR system (SensiQ Technologies, Oklahoma City, Okla.) was used to provide sensitive and accurate detection of binding of small molecules to the very large C5 protein (MW=195,000 Da). The chip was prepared by preconditioning the sensor according to the protocol of the SensiQ FE using 10 mM HCl, 50 mM NAOH and 0.1% SDS. The sensor chip was activated by using a mixture of fresh EDAC (1-ethyl-3-(-3-dimethylaminopropyl) carbodiimide) (Sigma Co., St. Louis, Mo.) and NHS (N-hydroxy succinimide) (Sigma Co., St. Louis, Mo.). Human C5 was surface immobilized to a Pioneer Biosensor chip via random amine coupling (>12,000 RU) which makes use of the N-terminus and ε-amino groups of lysine residues of the protein ligand. Immobilization was done by injecting 30-40 μg/ml C5 in 10 mM NaAc pH 4.5 onto designated channels at a rate of 10 μL/minute for 12 minutes, targeting RL>12000 RU for small molecules.
Compounds were diluted in DMSO in a format of 100-fold final concentration and 3-fold serial dilution (5 or 6 dilutions). The 100-fold compounds were transferred to one-fold DMSO-free assay buffer in the 96-well test plate. The compound solution was injected at a rate of 60 μL/minute for 30-60 seconds, followed by 60-90 seconds dissociation time, buffer flushing and/or priming. Blank solution (1% DMSO assay buffer) was run for every 6 injections of compounds. Double reference by subtracting both blank channel and reference channel was applied for data processing. Titration of C5 binding compounds to the C5-immobilized biosensor chip surface led to interactions between C5 and potential binders, and the resulting changes of surface refractive index were sensitively measured by the system.
SPR data were analyzed with the managing software provided by SensiQ and equilibrium dissociation constant (KD) values were determined for each compound. Where a range of compound concentrations were analyzed, the lowest value obtained is presented.

Sequence of human C5 complement protein (P01031 19-1676): as above

Compound | Kd [1] [nM] | IC50 (Human C5 [2]) [nM] | IC50 (purified human C5) [nM] | Kd (Human C5 [3]) [nM]
CCCCCOc1cc(N2CCCN(Cc3ccc(CC(=O)N4CCOCC4)cc3Cl)C2=O)ccc1OC [CU0116] | 10.3 | 23.2 |  | 
CCCCCOc1cc(N2CCN(Cc3cc(F)ccc3OC)C2=O)ccc1OC [CU0002] | 83.5 | 42 |  | 
COc1ccc(NC(=O)NCc2ccc3[nH]ccc3c2)cc1OCCCC(C)C [SM0022] |  |  | 581 | 84
COc1ccc(NC(=O)N[C@@H](CO)c2ccccc2)cc1C#CCCC(C)C [SM0014] |  |  | 335 | 63
COc1ccc(NC(=O)NC(CO)c2ccccc2OC)cc1OCCCC(C)C (centres unmarked) [SM0003] |  |  | 26.8 | 14
CCCCCOc1cc(N2CCCN(Cc3ccccc3Cl)C2=O)ccc1OC [CU0010] | 74.5 | 34.9 |  | 
CCCCCOc1cc(N2CCCN(Cc3cccnc3OC)C2=O)ccc1OC [CU0018] | 27.5 | 40.6 |  | 
CCCCCOc1cc(N2CCCN(Cc3ccnc4c3ccn4CC(=O)N(C)C)C2=O)ccc1OC [CU0035] | 33.5 | 30.8 |  | 
CCCCCOc1cc(N2CCCN(Cc3ccnc4c3ccn4CC(=O)N3CCOC(CN(C)C)C3)C2=O)ccc1OC (centres unmarked) [CU0050] | 9 | 18 |  | 
COc1ccc(NC(=O)NCc2ccc(O)c(O)c2)cc1OCCCC(C)C [SM0015] |  |  | 342 | 196
CC(C)CCCOc1cc(NC(=O)N[C@@H](CO)c2ccccc2)ccc1F [SM0075] |  |  | 11500 | 1300
CCCCCOc1cc(N2CCCN(Cc3ccnc4c3ccn4C3CCN(C)C3=O)C2=O)ccc1OC (single isomer, unassigned) [CU0039(2)] | 6.5 | 30.1 |  | 
COc1ccc(NC(=O)NCc2ccnc3[nH]ccc23)cc1OCCCC(C)C [SM0013] |  |  | 327 | 17
CCCCCOc1cc(N2CCCN(Cc3ccnc4c3ccn4CC(=O)N3CCOCC3)C2=O)ccc1OC [CU0043] | 16.5 | 29.5 |  | 
COc1ccc(NC(=O)Nc2ccccc2O)cc1OCCCC(C)C [SM0069] |  |  | 7720 | 140
COc1ncc(NC(=O)N[C@@H](CO)c2ccccc2)cc1OCCCC(C)C [SM0042] |  |  | 2130 | 6400
COc1ccc(NC(=O)N[C@@H](CO)c2ccccc2)cc1C(F)(F)F [SM0073] |  |  | 9260 | 3200
COc1ccc(NC(=O)NCc2ccsc2)cc1OCCCC(C)C [SM0039] |  |  | 1490 | 210
C=CCCOc1cc(NC(=O)N[C@@H](CO)c2ccccc2)ccc1OC [SM0034] |  |  | 1100 | 1400
COc1ccc(NC(=O)NC(C)c2cccnc2)cc1OCCCC(C)C (centres unmarked) [SM0037] |  |  | 1320 | 628
COc1ccc(NC(=O)N(C)CC(O)c2ccc(O)cc2)cc1OCCCC(C)C (centres unmarked) [SM0071, 1-[2-hydroxy-2-(4-hydroxyphenyl)ethyl]-3-(3-isohexyloxy-4-methoxy-phenyl)-1-methyl-urea] |  |  | 8660 | 2100
COc1ccc(NC(=O)NCc2ccccn2)cc1OCCCC(C)C [SM0045] |  |  | 2230 | 2800
COc1ccc(NC(=O)NCc2ccc(O)cc2)cc1OCCCC(C)C [SM0017] |  |  | 401 | 111
COc1cccc(CNC(=O)Nc2ccc(OC)c(OCCCC(C)C)c2)c1 [SM0047] |  |  | 2270 | 830

Compound | Kd [1] [nM] | IC50 (Human C5 [2]) [nM] | IC50 (purified human C5) [nM] | Kd (Human C5 [3]) [nM]
COc1ccc(NC(=O)NCc2cccc(C#N)c2)cc1OCCCC(C)C [SM0076] |  |  | 11700 | 9400
COc1ccc(NC(=O)NCc2ccccc2O)cc1CCCCC(C)C [SM0005] |  |  | 65.8 | 37
COc1ccc(NC(=O)NC(CO)c2ccccn2)cc1OCCCC(C)C (centres unmarked) [SM0040] |  |  | 1620 | 110
COc1ccc(NC(=O)NC(CO)c2ccco2)cc1OCCCC(C)C (centres unmarked) [SM0032] |  |  | 1040 | 25
COc1ccc([C@H](CO)NC(=O)Nc2ccc(OC)c(OCCCC(C)C)c2)cc1 [SM0008] |  |  | 176 | 45
COc1ccc(NC(=O)NC(CO)c2ccccc2F)cc1OCCCC(C)C (centres unmarked) [SM0024] |  |  | 614 | 130
COc1ccc(NC(=O)NCc2ccccc2C#N)cc1OCCCC(C)C [SM0067] |  |  | 7360 | 172
COc1ccc(NC(=O)N[C@@H](CO)c2ccccc2)cc1OCC(C)CC(C)C (some centres unmarked) [SM0038] |  |  | 1480 | 800
COc1ccc(NC(=O)NCc2cccc(O)c2)cc1OCCCC(C)C [SM0016] |  |  | 378 | 290
COc1ccc(NC(=O)N[C@@H](CO)c2ccc(F)cc2)cc1OCCCC(C)C [SM0023] |  |  | 608 | 92
COc1ccc(NC(=O)NC(CO)c2ccccc2F)cc1CCCCC(C)C (centres unmarked) [SM0029] |  |  | 901 | 239
COc1ccc(NC(=O)NCC(O)c2ccccc2)cc1OCCCC(C)C (centres unmarked) [SM0081] |  |  | 13000 | 1600
COc1ccc(NC(=O)N[C@@H](COC(N)=O)c2ccccc2)cc1OCCCC(C)C [SM0068, (R)-2-(3-(4-methoxy-3-((4-methylpentyl)oxyureido)-2-phenylethyl carbamate] |  |  | 7360 | 2600
COc1ccc(NC(=O)N[C@@H](COC(C)=O)c2ccccc2)cc1OCCCC(C)C [SM0062] |  |  | 5650 | 2000
COc1ccc(NC(=O)NCC(O)c2ccc(O)cc2)cc1OCCCC(C)C (centres unmarked) [SM0074] |  |  | 9360 | 3600
COc1ccc(NC(=O)N[C@@H](CO)c2ccccc2)cc1OCCCCC(F)(F)F [SM0025] |  |  | 675 | 620
COc1ccc(NC(=O)NCc2cccs2)cc1OCCCC(C)C [SM0052] |  |  | 3100 | 564
COc1ccc(NC(=O)NCc2cccc(CN(C)C)c2)cc1OCCCC(C)C [SM0063] |  |  | 6140 | 6370
C=C(NC(=O)Nc1ccc(OC)c(OCCCC(C)C)c1)c1ccccc1 [SM0061] |  |  | 4990 | 3900
COc1ccc(NC(=O)NCc2ccc3nccn3c2)cc1OCCCC(C)C [SM0065] |  |  | 6670 | 1600
COc1ccc(NC(=O)N(C)Cc2ccccc2)cc1OCCCC(C)C [SM0021] |  |  | 533 | 368
COc1ccc(NC(=O)N[C@@H](CO)c2ccccc2)cc1CCCCC(C)C [SM0010] |  |  | 226 | 107
COc1ccc(NC(=O)NCc2cccnc2)cc1OCCCC(C)C [SM0049] |  |  | 2790 | 4100
COc1cc(CNC(=O)Nc2ccc(OC)c(OCCCC(C)C)c2)ccc1O [SM0030] |  |  | 936 | 190

Compound | Kd [1] [nM] | IC50 (Human C5 [2]) [nM] | IC50 (purified human C5) [nM] | Kd (Human C5 [3]) [nM]
COc1ccc(NC(=O)N[C@@H]2c3ccccc3C[C@@H]2O)cc1OCCCC(C)C [SM0066] |  |  | 6870 | 290
COc1ccc(NC(=O)NCc2cccc3ncccc23)cc1OCCCC(C)C [SM0044] |  |  | 2180 | 74
COc1ccc(NC(=O)N[C@@H](CO)c2ccccc2)cc1OCCOC(C)C [SM0083] |  |  | 15400 | 6400
COCCCOc1cc(NC(=O)N[C@@H](CO)c2ccccc2)ccc1OC [SM0084] |  |  | 16100 | 310
COc1ccc(NC(=O)NCc2ccc(CN(C)C)cc2)cc1OCCCC(C)C [SM0043] |  |  | 2140 | 1930
COc1ccc(NC(=O)NC(CCO)c2ccccc2)cc1OCCCC(C)C (centres unmarked) [SM0064] |  |  | 6450 | 6610
COc1ccc(NC(=O)NCc2ccncc2)cc1C#CCCC(C)C [SM0046] |  |  | 2240 | 8600
COc1ccc(NC(=O)NCc2cscn2)cc1OCCCC(C)C [SM0059] |  |  | 4390 | 113
COc1ccc(NC(=O)NCc2ccc(S(N)(=O)=O)cc2)cc1OCCCC(C)C [SM0048] |  |  | 2540 | 7200
COc1ccc(NC(=O)N[C@@H](CO)c2ccccc2)cc1OCCCCCC(C)C [SM0033] |  |  | 1100 | 410
COc1ccc(NC(=O)N[C@@H](C)c2ccccc2)cc1OCCCC(C)C [SM0009] |  |  | 198 | 647
COc1ccc(NC(=O)NCc2ccncc2)cc1OCCCC(C)C [SM0031] |  |  | 983 | 2700
COc1ccc(NC(=O)NCc2cnccn2)cc1OCCCC(C)C [SM0080] |  |  | 13000 | 144
COc1ccc(NC(=O)N[C@@H](CO)c2ccccc2)cc1OCCOC1CCC1 [SM0053] |  |  | 3380 | 3350
COc1ccc(NC(=O)NC(CO)c2ccccc2C)cc1OCCCC(C)C (centres unmarked) [SM0036] |  |  | 1240 | 4300
CCCCCOc1cc(N2CCCN(Cc3ccc(CC(=O)N4CCNC(=O)C4)cc3OC)C2=O)ccc1OC [CU0101] | 2.4 |  |  | 
COc1ccc(NC(=O)N[C@@H](CO)c2ccccc2)cc1OCCC(C)C [SM0072] |  |  | 8680 | 8200
COc1ccc(NC(=O)NCc2ccccc2OC)cc1CCCCC(C)C [SM0007] |  |  | 165 | 90
COc1ccc(NC(=O)NCc2ccccc2O)cc1OCCCC(C)C [SM0004] |  |  | 42.6 | 28
COc1ccc(NC(=O)NCc2ccccc2)cc1OCCCC(C)C [SM0026] |  |  | 685 | 97
COc1ccc(NC(=O)N2CCC[C@H]2c2ccccc2)cc1OCCCC(C)C [SM0027] |  |  | 697 | 171
COc1ccc(NC(=O)NC(CO)c2ccc(Cl)cc2)cc1OCCCC(C)C (centres unmarked) |  |  | 3390 | 320
CC(C)CCCOc1cccc(NC(=O)N[C@@H](CO)c2ccccc2)c1 [SM0070, 1-[(1R)-2-hydroxy-1-phenyl-ethyl]-3-(3-isohexyloxyphenyl)urea] |  |  | 8600 | 4800
COc1ccc(NC(=O)N(CCO)c2ccccc2)cc1OCCCC(C)C [SM0057] |  |  | 4050 | 5300
